Measured values: patent US20230118152A1, “FORMS OF 5-({[2-AMINO-3-(4-CARBAMOYL-2,6-DIMETHYL-PHENYL)-PROPIONYL]-[1-(4-PHENYL-1H-IMIDAZOL-2-YL)-ETHYL]-AMINO}-METHYL)-2-METHOXY-BENZOIC ACID” (Allergan Holdings Unlimited Company, priority 2020, published 2023)

Assay: Slurry experiments in water (physical form stability)
Assay type: physicochemical
Procedure: Form H3 may be formed by slurrying Form A in water. Form H3 may convert back to Form A with some minor amorphous contents within some time, and completely convert to amorphous phase upon further slurrying within further time.
Form H3 was prepared by slurry of Form A in water upon stirring. Form H3 converted back to Form A with some minor amorphous content within 2 days, and completely converted to amorphous phase upon slurry within 8 days. After additional 7 days (i.e. day 15 of slurry experiments), the amorphous phase converted further to Form D (tetrahydrate) with high crystallinity.

SMILES	solid form conversion when suspended in water (suspended in water, trihydrate form (H3) and tetrahydrate (Form D))	time for complete conversion to amorphous phase (slurry in water upon stirring)	time for conversion back to Form A with some minor amorphous content (slurry in water upon stirring)
COc1ccc(CN(C(=O)C(N)Cc2c(C)cc(C(N)=O)cc2C)C(C)c2nc(-c3ccccc3)c[nH]2)cc1C(=O)O (stereo not drawn) [Form A, 5-({[2-Amino-3-(4-carbamoyl-2,6-dimethyl-phenyl)-propionyl]-[1-(4-phenyl-1H-imidazol-2-yl)-ethyl]-amino}-methyl)-2-methoxy-benzoic acid]	converts to hydrated crystalline forms		
COc1ccc(CN(C(=O)C(N)Cc2c(C)cc(C(N)=O)cc2C)C(C)c2nc(-c3ccccc3)c[nH]2)cc1C(=O)O (stereo not drawn) [Form H3, 5-({[2-amino-3-(4-carbamoyl-2,6-dimethyl-phenyl)-propionyl]-[1-(4-phenyl-1H-imidazol-2-yl)-ethyl]-amino}-methyl)-2-methoxy-benzoic acid]		≤ 8 days	≤ 2 days
